The values below are quoted from earlier work in US20240199754A1 (VANCOUVER BIOTECH LTD., priority 2021, published 2024).

Square brackets hold non-standard residues; d marks the D form. Peptide text beside a SMILES is read from it. dPhe(4-Cl) = N[C@H](Cc1ccc(Cl)cc1)C(=O)O; d2Nal = N[C@H](Cc1ccc2ccccc2c1)C(=O)O; dCit = NC(=O)NCCC[C@@H](N)C(=O)O; d3Pal = N[C@H](Cc1cccnc1)C(=O)O

The conditions of this series: cited from earlier work.

Turning to `CC(=O)N[C@H](Cc1ccc2ccccc2c1)C(=O)N[C@H](Cc1ccc(Cl)cc1)C(=O)N[C@H](Cc1cccnc1)C(=O)N[C@@H](CO)C(=O)N[C@@H](Cc1ccc(O)cc1)C(=O)N[C@H](CCCNC(N)=O)C(=O)N[C@@H](CC(C)C)C(=O)N[C@@H](CCCNC(=N)N)C(=O)N1CCC[C@H]1C(=O)N[C@H](C)C(N)=O` [Cetrorelix, reference compound] (Ac-[d2Nal][dPhe(4-Cl)][d3Pal]SY[dCit]LRP[dA]-NH2), the circulation half life was 10 to 63 h.
